Several values for one entry are separate records, joined by “and”; a condition that tells them apart may be missing. Identical values can stand only once. Entries after “also recorded” stand apart in the source; their conditions may differ.
Columns and labels:
human plasmin = test system: human plasmin; set-up: method as in PMID 9790687; conditions: previous studies; cited from earlier work
thrombin = test system: thrombin; set-up: method as in PMID 9790687; conditions: previous study; read-out: inhibitory potency; cited from earlier work
Human CatG = target: T1, Human CatG (Homo sapiens, UniProt P08311); assay: Michaelis-Menten kinetics of CatG hydrolysis of chromogenic substrate S-7388 in the presence of NSGM 25; assay type: biochemical
T1 construct: purchased Elastin Products Company (Owensville, MO, USA)
T1 sequence (P08311 21-255): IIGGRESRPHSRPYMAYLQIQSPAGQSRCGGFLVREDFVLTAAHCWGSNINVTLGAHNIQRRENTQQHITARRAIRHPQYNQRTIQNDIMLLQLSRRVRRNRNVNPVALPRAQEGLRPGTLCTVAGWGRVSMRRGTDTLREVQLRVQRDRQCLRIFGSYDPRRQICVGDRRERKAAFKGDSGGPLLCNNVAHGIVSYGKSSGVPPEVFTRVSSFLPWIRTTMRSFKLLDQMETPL
Procedure: […] The data were analyzed using the standard Michaelis–Menten equation in Sigmaplot version 12 to determine the KM and VMAX.
Figure 5 Kinetics of inhibition of 60 nM CatG by NSGM 25. Michaelis–Menten kinetics of CatG hydrolysis of chromogenic substrate (S-7388) in the presence of NSGM 25. Experiments were performed at 37 °C in 20 mM tris buffer, pH 7.4. Solid lines represent nonlinear regression analysis of the data using the standard Michaelis-Menten to calculate KM and VMAX.

[1] = test system: human neutrophil elastase (HNE); set-up: method as in PMID 23735578; conditions: previous studies; cited from earlier work
human plasma = assay: Activated partial thromboplastin time (aPTT) clotting assay; assay type: biochemical
Procedure: The impacts of NSGM 25 on activated partial thromboplastin time (aPTT) and the prothrombin time (PT) of human plasma were measured employing a standard one-stage recalcification assay at 37 °C, as previously reported. CaCl2 and thromboplastin-D were used to initiate clotting in aPTT and PT assays, respectively, in the absence and presence of NSGM 25, and the time to clot was recorded accordingly.

factor XIa = test system: factor XIa; set-up: method as in PMID 9790687; conditions: previous study; read-out: inhibitory potency; cited from earlier work
[2] = 50 nM NSGM 25, substrate S-7388, pH 7.4, 37 °C

- Km (Human CatG; [2]): 2180 ± 270 µM
- VMAX (Human CatG; [2]): 52.9 ± 4.1 mAu/min
- Km (Human CatG; 100 nM NSGM 25): 1310 ± 60 µM
- VMAX (Human CatG; 100 nM NSGM 25): 31.0 ± 0.8 mAu/min
- Km (Human CatG; 150 nM NSGM 25): 870 ± 200 µM
- VMAX (Human CatG; 150 nM NSGM 25): 21.1 ± 2.1 mAu/min
- Km (Human CatG; 200 nM NSGM 25): 800 ± 110 µM
- VMAX (Human CatG; 200 nM NSGM 25): 17.0 ± 1.0 mAu/min
- Km (Human CatG; 400 nM NSGM 25): 770 ± 300 µM
- VMAX (Human CatG; 400 nM NSGM 25): 12 ± 2 mAu/min and 12.4 ± 2.1 mAu/min
- mechanism of CatG inhibition (Human CatG; from simultaneous reduction in KM and VMAX): uncompetitive
SMILES: O=c1c(OS(=O)(=O)O)c(-c2ccc(OS(=O)(=O)O)c(OS(=O)(=O)O)c2)oc2cc(OS(=O)(=O)O)cc(OCc3ccc(COc4cc(OS(=O)(=O)O)cc5oc(-c6ccc(OS(=O)(=O)O)c(OS(=O)(=O)O)c6)c(OS(=O)(=O)O)c(=O)c45)cc3)c12 [NSGM 25]
- IC50 (human plasmin): ~6.3 µM
- IC50 (thrombin): > 150 µM
- IC50 [1]: ~0.23 µM
- aPTT (EC2X) (human plasma; concentration required to double the aPTT of pooled human plasma): >1000 µM
- effect on aPTT clotting time (human plasma; human plasma, concentration as high as 1 mM): did not impact; also recorded: did not extend
- IC50 (factor XIa): > 150 µM

Reference: article PMC10216581, “Homogeneous, Synthetic, Non-Saccharide Glycosaminoglycan Mimetics as Potent Inhibitors of Human Cathepsin G” (Biomolecules, 2023)
